Consider two molecules from US12252486B2, “Solid state forms” (Amgen Inc., priority 2019, dated 2025).

Series [1] has as its system KRAS^G12C tumors. The note with it: preclinical analyses, combination; cited from earlier work.
Series [2] deals with KRAS^G12C tumors. As to conditions: immune-competent mice; alone as well as in combination with immune-checkpoint inhibitors; cited from earlier work.
The conditions of series [3]: clinical trials, first dosing cohorts; cited from earlier work.
Series [4] can be described thus: solubility assessment during lead optimization. Format: physicochemical. From the text:
Within the pharmaceutical research and development field, the investigation of a suitable solid-state form represents a crucial step. Investigating a solid-state form comprises several decisions, mainly the investigation of an anhydrous, salt or co-crystal form and the investigation of a polymorph of the respective anhydrous, salt or co-crystal. During a lead optimization program, several properties of research compounds are optimized, typically leading to one or a few candidates that continue into exploratory development programs. Typically, in the assessment and optimization of physical chemical parameters during lead optimization, the main focus is on solubility. […] Beyond the optimization of solubility, further physical chemical parameters, such as (1) melting point, (2) thermal behavior, (3) hygroscopicity, (4) crystal habit, (5) polymorphic behavior or physical stability, (6) impurity profile, and (7) chemical stability of the anhydrous or salt form, must be borne in mind when investigating the salt. The melting point of a drug, either as a free base, acid or salt form, should be higher than a certain threshold to allow processing steps such as drying or tableting. The assessment of thermal behavior, which is typically done by thermogravimetry (TGA) and differential scanning calorimetry (DSC), also includes solid-solid phase transitions. […]

With `C=CC(=O)N1CCN(c2nc(=O)n(-c3c(C)ccnc3C(C)C)c3nc(-c4c(O)cccc4F)c(F)cc23)[C@@H](C)C1` [AMG 510], the “effect on anti-tumor efficacy of chemotherapy and targeted agents” value with KRAS^G12C tumors [1] was “improved the anti-tumor efficacy of chemotherapy and targeted agents”. The cures entry with KRAS^G12C tumors [2] is given as “durable cures”. In addition, the anti-tumor activity entry in series [3] is listed as “demonstrated anti-tumor activity”.

For the molecule `C=CC(=O)N1CCN(c2nc(=O)n(-c3c(C)ccnc3C(C)C)c3nc(-c4c(O)cccc4F)c(F)cc23)[C@@H](C)C1` [Compound 1, 6-fluoro-7-(2-fluoro-6-hydroxyphenyl)-1-(4-methyl-2-(2-propanyl)-3-pyridinyl)-4-((2S)-2-methyl-4-(2-propenoyl)-1-piperazinyl)pyrido[2,3-d]pyrimidin-2(1H)-one], in series [4], the solubility entry was “good solubility features”.
